In US20240277718A1, “USE OF […] TO REDUCE ORGAN FIBROSIS” (SUNN[…].R.L., priority 2021, published 2024):
“Also recorded” adds a separate entry of the source.

Columns and labels:
[1] = tested on: systemic fibrosis induced with hypochlorous acid (HOCI) in Balb/c mice; assay: Histological analysis (hematoxylin/eosin, Masson's trichrome, Picrosirius red) of skin, heart and lung in HOCI-induced systemic fibrosis; type: in vivo; settings: HOCI+Istra vs HOCI group, week 4 to 6
Description: Histological analysis, hematoxylin/eosin staining, Masson's trichrome and Picrosirius red: Tissues for histological and immunohistochemical analyses were fixed in 10% buffered formalin for 24 hours and then included according to standard paraffin protocol. The classic hematoxylin/eosin, Masson and Pricrosirius stainings were performed on 5-6 μm thickness tissue slices that were routinely processed using an automated histology preparer.
(§1) In fact, data obtained from literature indicate that it is possible to find a significant fibrosis in the major organs such as skin, heart, large vessels and lungs, already at the fourth week of induction of the disease: for this reason, the treatment with istradefylline started at the fourth week, carrying on both induction and treatment up to the sixth week.
Animals were divided into 3 groups of 7 animals each. A group was used as control group and was the group of untreated animals (“Sham”); a group was subcutaneously treated with 400 μl of an aqueous solution of hypochlorous acid (HOCI) for 6 weeks; lastly a group was subcutaneously treated with the above-mentioned solution of HOCI at the dose of 400 μl (for 6 weeks) and with istradefylline (from week 4 up to week 6) at the dose of 10 mg/kg per day intraperitoneally and 1 hour after HOCI injection (“HOCI+Istra”). […]

[2] = tested on: genes encoding TGF-b, Wnt1, Wnt5, Wnt10, DKK1 and Col1A1; assay: Quantitative Real-Time PCR of fibrosis-related genes in lungs in HOCI-induced systemic fibrosis; type: in vivo, Balb/c mice; settings: HOCI+Istra vs HOCI group, 10 mg/kg per day intraperitoneally, week 4 to 6, FIG. 4
Description: Quantitative Real Time PCR Method: Reverse transcription was performed using the Super-Script IV Reverse Transcriptase synthesis kit (Thermo Fisher Scientific) and random primers as indicated in the manufacturer's protocol and 1 μl of cDNA was then used for the PCR reaction by using ready-made primers (to identify Wnt1, Wnt 5, Wnt 10, TGF-b, Collagen 1A1 and DKK1) and Thermo Fisher Scientific master mix in the QuantStudio 6 Flex instrument from Applied Biosystems.
as §1
Animals were divided into 3 groups of 7 animals each. […]
Lungs obtained from the animals of all the experimental groups were subjected to the extraction of the total RNA which was then analyzed with the quantitative Real-Time PCR and specific primers to evaluate the expression of the genes encoding for TGF-b, Wnt1, Wnt5, Wnt10, DKK1 and Col1A1 (type I collagen) measured compared to the expression of the housekeeping gene, b-actin.

[3] = tested on: vimentin and b-catenin (Wnt/b-catenin pathway); assay: Immunofluorescence for vimentin and b-catenin in skin, heart and lung in HOCI-induced systemic fibrosis; type: in vivo, Balb/c mice; settings: HOCI+Istra vs HOCI group; all studied tissues (skin, lung, heart); 10 mg/kg per day intraperitoneally, week 4 to 6; FIG. 3
Description: Immunofluorescence methods to mark vimentin and b-catenin: For immunohistochemistry the 5 μm tissue slices were incubated with 10 mmol/pH 6.0 citrate buffer in a temperature of 98° C. for 20 min. To reduce the background fluorescence, tissues were kept in a humidified chamber in 2 mmol/L glycine for 30 minutes. For the blocking of nonspecific antigenic sites, incubation was performed for 1 hour with 5% fetal bovine serum diluted in PBS, with the addition of 3% serum bovine albumin and 1% Triton X-100. Primary antibodies (p-Ser552 b-catenin, diluted 1:200; Cell Signal Technologies; Vimentin monoclonal antibody diluted 1:800; Sigma-Aldrich) were diluted in PBS and kept for 1 hour at room temperature. A species-specific antibody from Vector Laboratories was used as a negative control of the reaction. Secondary antibodies labeled with anti-rabbit IgG-fluorescein isothiocyanate (green fluorescence) or with anti-mouse IgG Alexa Fluor 555 (fred fluorescence) were kept for 1 hour at room temperature before mounting the slides and to observe the reaction under the microscope. […]

CCn1c(=O)c2c(nc(/C=C/c3ccc(OC)c(OC)c3)n2C)n(CC)c1=O [istradefylline, 8-[(1E)-2-(3,4-Dimethoxyphenyl)ethenyl]-1,3-diethyl-3,7-dihydro-7-methyl-1H-purine-2,6-dione]
thickening in skin and at the myocardial and pulmonary level (hematoxylin/eosin) ([1]; istradefylline 10 mg/kg per day intraperitoneally, FIG. 1): significantly reduce the thickening
collagen fibers deposition (Masson trichrome and Picrosirius red) ([1]; skin, lung and heart tissues, 10 mg/kg per day intraperitoneally, FIG. 2, 10 mg/kg/day): lower deposition of collagen fibers; also recorded: significant reduction collagen fibers deposition
expression of genes related to the fibrotic process (Wnt1, 5, 10 and TGF-b; 'all 3 targets') relative to b-actin [2]: significant reduction in the expression
positivity of b-catenin (immunofluorescence) [3]: significantly reduced the positivity
positivity of vimentin (immunofluorescence, fibroblast marker) [3]: significantly reduced the positivity
